Calls of active or inactive are those of the source. Cut-off read from the data, not from the text of the source, for most assays here: actives have a measured IC50 and inactives only a lower limit.
Legend:
[1] = biological target: Troponin, cardiac muscle (Homo sapiens, UniProt P19429+P45379+P63316); assay: Fluorescence-based biochemical high throughput dose response assay for activators of the calcium sensitivity of cardiac Regulated Thin Filaments (RTF). [Related pubchem assays (depositor defined):AID493008, AID493018, AID504382, AID504383]; type: protein-complex assay
[2] = biological target: Large T antigen (Simian virus 40, UniProt P03070); assay: A confirmatory biochemical assay using the ADP-Hunter methodology, purified TAg, and ATP to quantify activity of synthesized compounds that inhibit the ATPase activity of Tag (3). [Related pubchem assays (depositor defined):AID1903, AID1909, AID2102, AID2501, AID2615, AID2775, AID435001, AID449729]; set-up: species or system Betapolyomavirus macacae
[3] = antiviral efficacy against SV40, host toxicity – BSC cells, set 3, confirmation (AID 485276); type: functional, cell-based
[4] = biological target: T1, Voltage-gated N-type calcium channel alpha-1B subunit/Amyloid beta A4 precursor protein-binding family A member 1 (Homo sapiens, UniProt Q00975+Q02410); type: protein assay
[5] = biological target: T1, Voltage-gated N-type calcium channel alpha-1B subunit/Amyloid beta A4 precursor protein-binding family A member 1; type: protein assay; remark: listed apart in the source
[6] = biological target: T2, SUMO-activating enzyme (Homo sapiens, UniProt Q9UBT2); assay: blockers of UBC9-mediated SUMO conjugation – biochemical, AlphaScreen, SUMOylation inhibitor project, confirmation (AID 2018); type: functional
[7] = biological target: T2, SUMO-activating enzyme; assay: blockers of SAE1/SAE2–UBC9 SUMO transfer – biochemical, HTRF, uHTS, primary screen (AID 2006); type: protein-complex assay
[8] = biological target: T3, Tyrosine-protein phosphatase non-receptor type 7 (Homo sapiens, UniProt P35236); assay: SAR analysis of chemical inhibitors of HePTP using a Fluorescent assay - Set 2. [Related pubchem assays (depositor defined):AID1059, AID1077, AID1661, AID2085, AID521]; type: functional
T3 sequence (P35236 whole entry): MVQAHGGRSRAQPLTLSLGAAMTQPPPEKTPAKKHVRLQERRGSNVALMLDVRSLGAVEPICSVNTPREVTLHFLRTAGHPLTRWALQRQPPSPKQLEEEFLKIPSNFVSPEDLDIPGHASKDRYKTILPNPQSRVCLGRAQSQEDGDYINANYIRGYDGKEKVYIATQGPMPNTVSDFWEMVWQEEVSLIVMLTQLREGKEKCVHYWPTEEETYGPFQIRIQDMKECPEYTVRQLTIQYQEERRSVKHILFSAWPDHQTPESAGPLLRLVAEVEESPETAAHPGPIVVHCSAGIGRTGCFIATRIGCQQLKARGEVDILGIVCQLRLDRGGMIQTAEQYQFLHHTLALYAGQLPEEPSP

[9] = biological target: T3, Tyrosine-protein phosphatase non-receptor type 7; assay: inhibition of hematopoietic tyrosine phosphatase HePTP – biochemical, set 2, SAR follow-up (AID 449736); type: functional
[10] = biological target: T4, Dual specificity protein phosphatase 6 (Rattus norvegicus, UniProt Q64346); type: functional
T4 sequence (Q64346 whole entry): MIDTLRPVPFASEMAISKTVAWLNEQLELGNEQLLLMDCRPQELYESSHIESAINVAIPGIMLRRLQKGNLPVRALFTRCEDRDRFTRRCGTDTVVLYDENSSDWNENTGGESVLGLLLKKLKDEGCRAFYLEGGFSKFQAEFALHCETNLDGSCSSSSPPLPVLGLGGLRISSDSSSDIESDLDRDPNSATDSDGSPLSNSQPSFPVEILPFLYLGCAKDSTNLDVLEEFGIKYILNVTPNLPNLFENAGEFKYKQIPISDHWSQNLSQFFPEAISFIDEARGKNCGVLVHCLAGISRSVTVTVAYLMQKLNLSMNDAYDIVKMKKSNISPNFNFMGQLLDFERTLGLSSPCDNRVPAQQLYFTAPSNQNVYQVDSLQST

[11] = biological target: T3, Tyrosine-protein phosphatase non-receptor type 7; assay: redox-active compounds inhibiting HePTP phosphatase – biochemical, fluorescence, mechanism study (AID 2068); type: functional
[12] = biological target: T5, Dual specificity protein phosphatase 3 (Homo sapiens, UniProt P51452); assay: SAR VHR1 Fluorescent Assay for In Vitro dose response studies. [Related pubchem assays (depositor defined):AID1654, AID1661, AID1878, AID1992, AID2004, AID2070, AID2085]; type: functional
[13] = biological target: T5, Dual specificity protein phosphatase 3; assay: SAR VHR1 Fluorescent Assay for In Vitro dose response studies Set 2. [Related pubchem assays (depositor defined):AID1654, AID1661, AID1878]; type: functional
[14] = biological target: T5, Dual specificity protein phosphatase 3; assay: SAR VHR1 absorbance Assay for In Vitro dose response studies. [Related pubchem assays (depositor defined):AID1654, AID1661, AID1878, AID1992, AID2004]
[15] = biological target: T4, Dual specificity protein phosphatase 6; assay: SAR analysis of inhibitors of MKP-3 - Set 2. [Related pubchem assays (depositor defined):AID1055, AID1661, AID425, AID553, AID566]; type: functional

T5 sequence (P51452 whole entry): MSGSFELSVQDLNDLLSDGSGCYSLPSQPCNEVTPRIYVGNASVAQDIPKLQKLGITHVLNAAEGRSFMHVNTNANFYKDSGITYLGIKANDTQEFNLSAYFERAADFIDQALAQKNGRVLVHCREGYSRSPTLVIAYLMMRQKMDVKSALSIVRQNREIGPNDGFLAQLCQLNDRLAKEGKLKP
T1 sequence (Q00975 whole entry): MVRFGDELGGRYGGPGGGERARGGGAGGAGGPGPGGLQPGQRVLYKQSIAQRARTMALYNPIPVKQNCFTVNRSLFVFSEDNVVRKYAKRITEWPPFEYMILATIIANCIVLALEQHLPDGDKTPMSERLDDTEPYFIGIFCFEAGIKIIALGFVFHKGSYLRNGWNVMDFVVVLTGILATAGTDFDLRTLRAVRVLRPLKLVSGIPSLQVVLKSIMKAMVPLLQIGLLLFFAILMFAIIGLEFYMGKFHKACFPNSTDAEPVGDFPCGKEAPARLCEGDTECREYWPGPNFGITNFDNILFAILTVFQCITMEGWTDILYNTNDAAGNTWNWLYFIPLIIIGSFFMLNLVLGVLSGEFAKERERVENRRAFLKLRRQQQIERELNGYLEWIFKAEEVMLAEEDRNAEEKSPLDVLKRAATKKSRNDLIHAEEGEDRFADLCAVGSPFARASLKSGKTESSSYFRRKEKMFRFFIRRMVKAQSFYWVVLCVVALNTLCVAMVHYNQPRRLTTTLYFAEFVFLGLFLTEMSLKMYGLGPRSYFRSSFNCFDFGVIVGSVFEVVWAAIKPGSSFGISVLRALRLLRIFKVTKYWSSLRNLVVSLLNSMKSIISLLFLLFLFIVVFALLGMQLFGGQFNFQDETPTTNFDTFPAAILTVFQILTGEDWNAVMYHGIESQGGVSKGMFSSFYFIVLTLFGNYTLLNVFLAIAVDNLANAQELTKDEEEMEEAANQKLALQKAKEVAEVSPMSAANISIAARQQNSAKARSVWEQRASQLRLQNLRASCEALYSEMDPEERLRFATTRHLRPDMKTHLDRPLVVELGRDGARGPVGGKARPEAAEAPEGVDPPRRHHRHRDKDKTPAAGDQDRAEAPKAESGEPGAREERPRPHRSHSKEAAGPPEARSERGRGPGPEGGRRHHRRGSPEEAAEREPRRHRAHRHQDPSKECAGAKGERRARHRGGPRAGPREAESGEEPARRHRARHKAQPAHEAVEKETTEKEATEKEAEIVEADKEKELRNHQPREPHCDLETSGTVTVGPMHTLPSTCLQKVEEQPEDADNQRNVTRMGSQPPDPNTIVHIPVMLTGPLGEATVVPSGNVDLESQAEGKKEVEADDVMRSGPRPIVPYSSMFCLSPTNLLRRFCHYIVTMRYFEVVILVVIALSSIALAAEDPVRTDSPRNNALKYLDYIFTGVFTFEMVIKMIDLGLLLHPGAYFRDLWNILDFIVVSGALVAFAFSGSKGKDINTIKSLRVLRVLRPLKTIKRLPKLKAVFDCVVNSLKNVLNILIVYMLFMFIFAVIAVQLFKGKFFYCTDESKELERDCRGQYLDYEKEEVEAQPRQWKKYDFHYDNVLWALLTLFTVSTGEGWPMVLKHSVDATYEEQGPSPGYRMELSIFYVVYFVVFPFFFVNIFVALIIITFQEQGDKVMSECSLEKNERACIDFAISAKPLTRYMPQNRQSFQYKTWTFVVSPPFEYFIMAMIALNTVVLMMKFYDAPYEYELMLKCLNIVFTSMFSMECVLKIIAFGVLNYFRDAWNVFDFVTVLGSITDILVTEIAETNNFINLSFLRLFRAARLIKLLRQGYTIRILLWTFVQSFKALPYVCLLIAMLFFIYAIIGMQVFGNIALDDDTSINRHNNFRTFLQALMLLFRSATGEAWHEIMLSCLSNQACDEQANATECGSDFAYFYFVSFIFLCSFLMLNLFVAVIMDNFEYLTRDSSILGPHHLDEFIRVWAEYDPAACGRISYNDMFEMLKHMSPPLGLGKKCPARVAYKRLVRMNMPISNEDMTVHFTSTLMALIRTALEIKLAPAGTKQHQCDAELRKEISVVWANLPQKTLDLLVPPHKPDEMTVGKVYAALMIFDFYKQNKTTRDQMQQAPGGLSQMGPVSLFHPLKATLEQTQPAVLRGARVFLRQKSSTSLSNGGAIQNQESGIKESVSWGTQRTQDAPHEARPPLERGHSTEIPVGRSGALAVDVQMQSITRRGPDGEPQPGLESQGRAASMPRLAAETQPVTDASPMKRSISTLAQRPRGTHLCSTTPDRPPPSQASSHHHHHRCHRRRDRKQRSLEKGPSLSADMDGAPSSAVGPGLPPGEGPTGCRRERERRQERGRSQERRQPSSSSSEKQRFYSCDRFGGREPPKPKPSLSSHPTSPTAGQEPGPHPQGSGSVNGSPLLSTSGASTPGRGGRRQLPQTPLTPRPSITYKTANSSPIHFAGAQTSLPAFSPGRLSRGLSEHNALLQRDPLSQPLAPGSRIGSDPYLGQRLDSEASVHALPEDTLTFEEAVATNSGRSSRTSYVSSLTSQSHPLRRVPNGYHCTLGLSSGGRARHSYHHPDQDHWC
T1 sequence (Q02410 whole entry): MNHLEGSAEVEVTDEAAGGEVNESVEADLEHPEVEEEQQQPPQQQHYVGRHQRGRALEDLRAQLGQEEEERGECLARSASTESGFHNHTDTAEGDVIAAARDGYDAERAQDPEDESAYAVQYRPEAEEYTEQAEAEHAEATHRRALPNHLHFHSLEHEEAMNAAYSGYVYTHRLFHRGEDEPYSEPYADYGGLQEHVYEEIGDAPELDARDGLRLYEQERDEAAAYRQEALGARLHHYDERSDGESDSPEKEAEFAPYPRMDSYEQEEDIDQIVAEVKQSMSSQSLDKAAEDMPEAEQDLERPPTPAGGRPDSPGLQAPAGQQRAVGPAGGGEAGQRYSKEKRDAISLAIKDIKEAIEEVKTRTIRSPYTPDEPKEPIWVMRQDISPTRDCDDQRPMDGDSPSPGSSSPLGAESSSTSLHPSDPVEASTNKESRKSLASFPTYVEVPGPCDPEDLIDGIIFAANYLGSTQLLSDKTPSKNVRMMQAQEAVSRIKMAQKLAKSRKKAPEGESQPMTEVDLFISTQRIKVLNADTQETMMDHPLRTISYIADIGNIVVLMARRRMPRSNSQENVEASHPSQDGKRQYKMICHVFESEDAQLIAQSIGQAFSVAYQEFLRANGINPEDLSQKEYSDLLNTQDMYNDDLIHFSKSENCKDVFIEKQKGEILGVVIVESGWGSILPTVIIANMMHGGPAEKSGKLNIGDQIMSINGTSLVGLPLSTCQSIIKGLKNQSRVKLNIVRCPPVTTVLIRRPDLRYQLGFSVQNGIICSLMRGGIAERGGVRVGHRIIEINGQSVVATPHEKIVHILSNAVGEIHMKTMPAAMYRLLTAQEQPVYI
T2 sequence (Q9UBE0 whole entry): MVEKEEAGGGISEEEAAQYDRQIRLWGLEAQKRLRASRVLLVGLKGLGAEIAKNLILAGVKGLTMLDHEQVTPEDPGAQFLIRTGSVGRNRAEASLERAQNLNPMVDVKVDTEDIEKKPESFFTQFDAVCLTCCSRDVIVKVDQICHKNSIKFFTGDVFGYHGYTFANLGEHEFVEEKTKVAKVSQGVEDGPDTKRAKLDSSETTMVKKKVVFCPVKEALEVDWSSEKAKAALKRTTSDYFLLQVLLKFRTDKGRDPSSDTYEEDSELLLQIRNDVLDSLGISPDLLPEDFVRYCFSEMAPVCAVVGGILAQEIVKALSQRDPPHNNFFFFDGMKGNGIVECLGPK
T2 sequence (Q9UBT2 whole entry): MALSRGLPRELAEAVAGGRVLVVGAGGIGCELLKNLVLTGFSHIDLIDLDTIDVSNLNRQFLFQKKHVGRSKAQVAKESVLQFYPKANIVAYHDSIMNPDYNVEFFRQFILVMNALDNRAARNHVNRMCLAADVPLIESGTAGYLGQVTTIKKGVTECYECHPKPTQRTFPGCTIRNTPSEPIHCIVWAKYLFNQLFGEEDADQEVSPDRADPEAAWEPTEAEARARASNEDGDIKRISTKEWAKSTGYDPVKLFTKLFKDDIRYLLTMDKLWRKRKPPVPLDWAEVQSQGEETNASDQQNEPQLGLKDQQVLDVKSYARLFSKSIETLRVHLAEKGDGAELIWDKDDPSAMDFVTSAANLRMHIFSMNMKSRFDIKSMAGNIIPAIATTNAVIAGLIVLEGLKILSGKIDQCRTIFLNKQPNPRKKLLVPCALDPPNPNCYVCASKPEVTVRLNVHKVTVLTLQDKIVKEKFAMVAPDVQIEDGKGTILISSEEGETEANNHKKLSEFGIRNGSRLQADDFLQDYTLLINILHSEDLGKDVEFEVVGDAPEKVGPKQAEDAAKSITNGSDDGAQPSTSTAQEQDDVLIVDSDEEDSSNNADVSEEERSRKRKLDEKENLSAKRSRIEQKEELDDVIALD
Large T antigen, sequence (P03070 whole entry): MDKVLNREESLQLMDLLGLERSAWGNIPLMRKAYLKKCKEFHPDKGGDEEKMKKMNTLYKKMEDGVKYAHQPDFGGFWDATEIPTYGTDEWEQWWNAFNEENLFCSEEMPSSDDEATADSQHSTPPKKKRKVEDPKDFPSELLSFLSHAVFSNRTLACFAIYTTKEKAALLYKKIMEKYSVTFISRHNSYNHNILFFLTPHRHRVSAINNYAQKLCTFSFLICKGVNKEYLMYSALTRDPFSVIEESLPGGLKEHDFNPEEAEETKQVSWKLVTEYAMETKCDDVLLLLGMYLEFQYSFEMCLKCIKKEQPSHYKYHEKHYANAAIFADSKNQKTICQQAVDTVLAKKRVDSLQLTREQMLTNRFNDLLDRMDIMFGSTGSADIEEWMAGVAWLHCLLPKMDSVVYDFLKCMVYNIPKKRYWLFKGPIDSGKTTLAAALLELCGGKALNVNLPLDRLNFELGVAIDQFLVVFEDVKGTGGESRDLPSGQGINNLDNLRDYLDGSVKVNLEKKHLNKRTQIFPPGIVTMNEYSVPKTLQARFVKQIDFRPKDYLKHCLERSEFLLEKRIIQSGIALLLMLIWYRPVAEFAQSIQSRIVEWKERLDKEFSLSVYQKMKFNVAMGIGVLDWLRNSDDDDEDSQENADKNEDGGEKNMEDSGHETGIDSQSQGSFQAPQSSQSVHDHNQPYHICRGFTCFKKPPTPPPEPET

## Cc1sc(NC(=O)CSc2nnc(C(C)C)n2C)c(C#N)c1C
[1]
  EC50: > 71.5 µM (inactive)

## Oc1ccc(Sc2ccc(O)cc2O)c(O)c1
[2]
  IC50: 61.2 µM (active)
[3]
  IC50: 146 µM (active)

## O=C(N/N=C/c1ccc([N+](=O)[O-])o1)c1cn2ccc3ccccc3c2n1
[4]
  IC50: > 56.8 µM (not active)
[5]
  IC50: > 50 µM (inactive)
[6]
  IC50: 35.1 µM (active)
[7]
  IC50: > 100 µM (inactive)

## NS(=O)(=O)c1ccc(NC(=S)N2CCN(Cc3ccc4c(c3)OCO4)CC2)cc1
[8]
  IC50: 4.32 µM (active)
[9]
  IC50: > 100 µM (inactive)
[10]
  IC50: > 99 µM (inactive)
[11]
  IC50: 0.196 µM (active)
[12]
  IC50: > 99 µM (inactive)
[13]
  IC50: 1.69 µM (active)
[14]
  IC50: 5.41 µM (active)
[15]
  IC50: > 100 µM (inactive)

From ChEMBL document CHEMBL1201862, “PubChem BioAssay data set” (2004)
